Consider 29 compounds from US11649255B2, “Indazoles as hematopoietic progenitor kinase 1 (HPK1) inhibitors and methods using same” (1st Biotherapeutics, Inc., priority 2020, dated 2023).

recombinant human HPK1, sequence (Q92918 whole entry): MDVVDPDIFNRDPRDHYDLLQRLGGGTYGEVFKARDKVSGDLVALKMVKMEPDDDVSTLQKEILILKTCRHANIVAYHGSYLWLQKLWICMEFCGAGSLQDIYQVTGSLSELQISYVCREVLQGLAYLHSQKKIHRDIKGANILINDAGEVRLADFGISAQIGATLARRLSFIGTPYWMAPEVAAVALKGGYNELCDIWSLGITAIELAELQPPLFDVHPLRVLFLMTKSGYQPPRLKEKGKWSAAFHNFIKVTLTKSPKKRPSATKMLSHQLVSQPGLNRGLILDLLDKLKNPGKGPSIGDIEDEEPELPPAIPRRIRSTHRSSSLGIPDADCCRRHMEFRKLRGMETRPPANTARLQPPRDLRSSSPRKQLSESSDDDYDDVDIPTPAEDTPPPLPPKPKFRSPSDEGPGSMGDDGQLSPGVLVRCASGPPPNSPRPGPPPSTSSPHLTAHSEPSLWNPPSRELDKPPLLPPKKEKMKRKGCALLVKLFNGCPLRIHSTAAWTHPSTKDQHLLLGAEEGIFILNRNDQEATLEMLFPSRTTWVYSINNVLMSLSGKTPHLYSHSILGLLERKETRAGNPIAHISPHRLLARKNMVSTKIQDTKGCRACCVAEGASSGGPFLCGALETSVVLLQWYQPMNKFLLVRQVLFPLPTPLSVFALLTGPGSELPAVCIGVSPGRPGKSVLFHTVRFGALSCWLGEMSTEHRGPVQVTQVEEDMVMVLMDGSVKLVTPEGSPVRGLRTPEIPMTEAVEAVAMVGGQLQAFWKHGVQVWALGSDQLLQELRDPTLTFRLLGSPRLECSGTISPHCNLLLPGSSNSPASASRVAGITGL

For this experiment, the target named is recombinant human HPK1 (Homo sapiens (Human), UniProt Q92918). In words: HPK1 kinase assay (ADP-Glo). Particulars: 25 μM ATP, MBP substrate. Format: biochemical. The essentials:
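Activity was read as ADP formed, detected by ADP-Glo luminescence after the reaction of 5 ng recombinant human HPK1 with MBP and ATP (stocks 0.5 μg/μl and 25 μM) for 40 min at 30 °C. Buffer was Tris pH 7.5 with MgCl2, BSA and DTT, with compound in 0.5% DMSO. IC50 came from inhibition curves.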
(In general: ADP-Glo first removes unused ATP, then detects ADP through luciferase.)
Turning to `O=C(Nc1nc2ccc(-c3c(Cl)c(F)c(N4CCNCC4)c4[nH]ncc34)cc2s1)[C@@H]1C[C@@H]1F` [Example 76, (1S,2S)-N-(6-(5-chloro-6-fluoro-7-(piperazin-1-yl)-1H-indazol-4-yl)benzo[d]thiazol-2-yl)-2-fluorocyclopropane-1-carboxamide], the IC50 was in the range of 101 to 500 nM.
Take `O=C(Nc1cn2cc(-c3c(Cl)c(F)c(NC4CC4)c4[nH]ncc34)ccc2n1)[C@@H]1C[C@@H]1F` [Example 367, (1S,2S)-N-(6-(5-chloro-7-(cyclopropylamino)-6-fluoro-1H-indazol-4-yl)imidazo[1,2-a]pyridin-2-yl)-2-fluorocyclopropane-1-carboxamide]: the IC50 was less than 100 nM.
Consider `CNC(=O)c1c(F)c(Cl)c(-c2ccc3nc(NC(=O)[C@@H]4C[C@@H]4F)sc3n2)c2cn[nH]c12` [Example 195, 5-chloro-6-fluoro-4-(2-((1S,2S)-2-fluorocyclopropane-1-carboxamido)thiazolo[5,4-b]pyridin-5-yl)-N-methyl-1H-indazole-7-carboxamide], for which the IC50 is 101 to 500 nM.
In the case of `O=C(Nc1cc2cc(-c3c(C(F)F)ccc4[nH]ncc34)ccn2n1)[C@@H]1C[C@@H]1F` [Example 465, (1S,2S)-N-(5-(5-(difluoromethyl)-1H-indazol-4-yl)pyrazolo[1,5-a]pyridin-2-yl)-2-fluorocyclopropane-1-carboxamide], the IC50 is less than 100 nM.
The result for `CNCCN(C)c1c(F)c(Cl)c(-c2ccc3nc(NC(=O)[C@@H]4C[C@@H]4F)sc3c2)c2cn[nH]c12` [Example 92, (1S,2S)-N-(6-(5-chloro-6-fluoro-7-(methyl(2-(methylamino)ethyl)amino)-1H-indazol-4-yl)benzo[d]thiazol-2-yl)-2-fluorocyclopropane-1-carboxamide] reads less than 100 nM; that for `Cc1c(F)cc2[nH]nc(Br)c2c1-c1ccc2nc(NC(=O)[C@@H]3C[C@@H]3F)sc2c1` [Example 49, (1S,2S)-N-(6-(3-bromo-6-fluoro-5-methyl-1H-indazol-4-yl)benzo[d]thiazol-2-yl)-2-fluorocyclopropane-1-carboxamide], 501 to 1000 nM; that for `O=C(Nc1nc2ccc(-c3c(C(F)F)ccc4[nH]ncc34)cc2s1)[C@@H]1C[C@@H]1F` [Example 33, (1S,2S)-N-(6-(5-(difluoromethyl)-1H-indazol-4-yl)benzo[d]thiazol-2-yl)-2-fluorocyclopropane-1-carboxamide], 101 to 500 nM.
The result for `Cc1c(F)c(SCCO)c2[nH]ncc2c1-c1ccc2nc(NC(=O)[C@@H]3C[C@@H]3F)cn2c1` [Example 292, (1S,2S)-2-fluoro-N-(6-(6-fluoro-7-((2-hydroxyethyl)thio)-5-methyl-1H-indazol-4-yl)imidazo[1,2-a]pyridin-2-yl)cyclopropane-1-carboxamide] reads less than 100 nM.
With `Cc1ccc2[nH]ncc2c1-c1ccc2nc(NC(=O)C3CC3(F)F)sc2c1` (centres unmarked) [Example 5, 2,2-difluoro-N-(6-(5-methyl-1H-indazol-4-yl)benzo[d]thiazol-2-yl)cyclopropane-1-carboxamide], the IC50 was 101 to 500 nM.
With `O=C(Nc1nc2ccc(-c3c(Cl)c(F)c(F)c4[nH]ncc34)cc2s1)[C@@H]1C[C@@H]1F` [Example 126, (1S,2S)-N-(6-(5-chloro-6,7-difluoro-1H-indazol-4-yl)benzo[d]thiazol-2-yl)-2-fluorocyclopropane-1-carboxamide], the IC50 was less than 100 nM.
Turning to `O=C(Nc1nc2ccc(-c3cccc4[nH]ncc34)cc2s1)C1CC1` [Example 14, N-(6-(1H-indazol-4-yl)benzo[d]thiazol-2-yl)cyclopropanecarboxamide], the half-inhibitory concentration (IC50) was greater than 1000 nM.
For `Cc1ccc2[nH]ncc2c1-c1ccc2nc(NC(=O)C3CC(F)(F)C3)sc2c1` [Example 11, 3,3-difluoro-N-(6-(5-methyl-1H-indazol-4-yl)benzo[d]thiazol-2-yl)cyclobutane-1-carboxamide], the IC50 was in the range of 501 to 1000 nM.
Turning to `C=CC(=O)Nc1cc(Cl)c(-c2ccc3nc(NC(=O)[C@@H]4C[C@@H]4F)cn3c2)c2cn[nH]c12` [Example 276, (1S,2S)-N-(6-(7-acrylamido-5-chloro-1H-indazol-4-yl)imidazo[1,2-a]pyridin-2-yl)-2-fluorocyclopropane-1-carboxamide], the IC50 was less than 100 nM.
On to `CNC(=O)c1c(F)c(Cl)c(-c2ccc3nc(NC(=O)[C@@H]4C[C@@H]4F)sc3c2)c2cn[nH]c12` [Example 127, 5-chloro-6-fluoro-4-(2-((1S,2S)-2-fluorocyclopropane-1-carboxamido)benzo[d]thiazol-6-yl)-N-methyl-1H-indazole-7-carboxamide], for which the IC50 is less than 100 nM.
Under `CCOc1c(F)cc2[nH]ncc2c1-c1ccc2nc(NC(=O)[C@@H]3C[C@@H]3F)sc2n1` [Example 201, (1S,2S)-N-(5-(5-ethoxy-6-fluoro-1H-indazol-4-yl)thiazolo[5,4-b]pyridin-2-yl)-2-fluorocyclopropane-1-carboxamide] stands greater than 1000 nM; under `NC1CCN(c2c(F)c(Cl)c(-c3ccc4nc(NC(=O)[C@@H]5C[C@@H]5F)sc4c3)c3cn[nH]c23)CC1` [Example 83, (1S,2S)-N-(6-(7-(4-aminopiperidin-1-yl)-5-chloro-6-fluoro-1H-indazol-4-yl)benzo[d]thiazol-2-yl)-2-fluorocyclopropane-1-carboxamide], 101 to 500 nM; under `CC1(F)CN(c2c(F)c(Cl)c(-c3ccn4nc(NC(=O)[C@@H]5C[C@@H]5F)cc4c3)c3cn[nH]c23)C1` [Example 632, (1S,2S)-N-(5-(5-chloro-6-fluoro-7-(3-fluoro-3-methylazetidin-1-yl)-1H-indazol-4-yl)pyrazolo[1,5-a]pyridin-2-yl)-2-fluorocyclopropane-1-carboxamide], less than 100 nM.
With `CN(C)c1ccc(-c2ccc3nc(NC(=O)[C@@H]4C[C@@H]4F)cn3c2)c2cn[nH]c12` [Example 352, (1S,2S)-N-(6-(7-(dimethylamino)-1H-indazol-4-yl)imidazo[1,2-a]pyridin-2-yl)-2-fluorocyclopropane-1-carboxamide], the IC50 fell in the range of 101 to 500 nM.
Consider `CC(=O)c1c(F)c(Cl)c(-c2ccc3nc(NC(=O)[C@@H]4C[C@@H]4F)sc3c2)c2cn[nH]c12` [Example 128, (1S,2S)-N-(6-(7-acetyl-5-chloro-6-fluoro-1H-indazol-4-yl)benzo[d]thiazol-2-yl)-2-fluorocyclopropane-1-carboxamide], for which the half-inhibitory concentration (IC50) fell in the range of 101 to 500 nM.
As to `O=C(Nc1cn2cc(-c3c(C(F)(F)F)ccc4[nH]ncc34)ccc2n1)C1CC1` [Example 226, N-(6-(5-(trifluoromethyl)-1H-indazol-4-yl)imidazo[1,2-a]pyridin-2-yl)cyclopropanecarboxamide], the IC50 is less than 100 nM.
Take `Cn1nnnc1-c1c(F)c(Cl)c(-c2ccc3nc(NC(=O)[C@@H]4C[C@@H]4F)cn3c2)c2cn[nH]c12` [Example 350, (1S,2S)-N-(6-(5-chloro-6-fluoro-7-(1-methyl-1H-tetrazol-5-yl)-1H-indazol-4-yl)imidazo[1,2-a]pyridin-2-yl)-2-fluorocyclopropane-1-carboxamide]: the IC50 was less than 100 nM.
The result for `CN(C)c1c(F)c(Cl)c(-c2ccn3nc(NC(=O)NC4CC4)cc3c2)c2cn[nH]c12` [Example 647, 1-(5-(5-chloro-7-(dimethylamino)-6-fluoro-1H-indazol-4-yl)pyrazolo[1,5-a]pyridin-2-yl)-3-cyclopropylurea] reads less than 100 nM; that for `CN(c1c(F)c(Cl)c(-c2ccc3nc(NC(=O)[C@@H]4C[C@@H]4F)sc3c2)c2cn[nH]c12)C1CNC1` [Example 129, (1S,2S)-N-(6-(7-(azetidin-3-yl(methyl)amino)-5-chloro-6-fluoro-1H-indazol-4-yl)benzo[d]thiazol-2-yl)-2-fluorocyclopropane-1-carboxamide], less than 100 nM; that for `O=C(Nc1cn2cc(-c3c(Br)ccc4[nH]ncc34)ccc2n1)[C@@H]1C[C@@H]1F` [Example 238, (1S,2S)-N-(6-(5-bromo-1H-indazol-4-yl)imidazo[1,2-a]pyridin-2-yl)-2-fluorocyclopropane-1-carboxamide], less than 100 nM.
Under `CS(=O)(=O)c1c(F)c(Cl)c(-c2ccc3nc(NC(=O)[C@@H]4C[C@@H]4F)sc3n2)c2cn[nH]c12` [Example 185, (1S,2S)-N-(5-(5-chloro-6-fluoro-7-(methylsulfonyl)-1H-indazol-4-yl)thiazolo[5,4-b]pyridin-2-yl)-2-fluorocyclopropane-1-carboxamide] stands 101 to 500 nM.
Consider `CN(C)c1c(F)c(Cl)c(-c2ccc3nc(NC(=O)NC4CC4)cn3c2)c2cn[nH]c12` [Example 387, 1-(6-(5-chloro-7-(dimethylamino)-6-fluoro-1H-indazol-4-yl)imidazo[1,2-a]pyridin-2-yl)-3-cyclopropylurea], for which the IC50 was less than 100 nM.
With `Cc1c(F)c(Br)c2[nH]ncc2c1-c1ccn2nc(NC(=O)[C@@H]3C[C@@H]3F)cc2c1` [Example 487, (1S,2S)-N-(5-(7-bromo-6-fluoro-5-methyl-1H-indazol-4-yl)pyrazolo[1,5-a]pyridin-2-yl)-2-fluorocyclopropane-1-carboxamide], the IC50 is less than 100 nM.
With `CNC1CCC(Nc2c(F)c(Cl)c(-c3ccn4nc(NC(=O)[C@@H]5C[C@@H]5F)cc4c3)c3cn[nH]c23)CC1` (stereo partly drawn) [Example 508, (1S,2S)-N-(5-(5-chloro-6-fluoro-7-((4-(methylamino)cyclohexyl)amino)-1H-indazol-4-yl)pyrazolo[1,5-a]pyridin-2-yl)-2-fluorocyclopropane-1-carboxamide], the IC50 is less than 100 nM.
In the case of `CC(=O)NCCSc1c(F)c(Cl)c(-c2ccc3nc(NC(=O)[C@@H]4C[C@@H]4F)sc3c2)c2cn[nH]c12` [Example 73, (1S,2S)-N-(6-(7-((2-acetamidoethyl)thio)-5-chloro-6-fluoro-1H-indazol-4-yl)benzo[d]thiazol-2-yl)-2-fluorocyclopropane-1-carboxamide], the IC50 was less than 100 nM.

By IC50 is commonly meant the concentration needed to halve the response being measured.
